The text below walks through data of patent US12644117B2, “Method of enabling pooled-library based nucleic acid constructs screening” (priority 2019, dated 2026).

Each structure is given as a SMILES string.

This assay deals with recombinant ACMNPV baculovirus. Put plainly: Baculovirus spreading in Sf9 insect cells infected with YFP-expressing recombinant baculovirus, read by fluorescence microscopy. Type of assay: cell-based, Spodoptera Frugiperda. On the procedure: A recombinant ACMNPV baculovirus was generated by homologous recombination and expressed a target fluorescent protein. The fluorescent protein was the Yellow Fluorescent Protein (YFP) from the organism Aequorea Victoria. • Three hours before infection 0.5 million Sf9 insect cells (ThermoFisher) were seeded into two wells of a 6 well-plate (ThermoFisher). Sf9 cells are cultivated in sf900 II media (ThermoFisher). • The initial viral stock titer was estimated to be approximately 1 million baculoviruses per milliliter. The recombinant baculovirus was added to the cells to reach a MOI of approximately 0.02. The added virus volume per well was 10 micolitre. The virus was resuspended in sf900 II media (ThermoFisher). • Cells were incubated in a 27° C. incubator. Four hours after infection, attached cells are washed with PBS to remove baculoviruses which have not penetrated into cells. The wash consisted of three times with 1 ml per cell of PBS media. • Chloroquine diphosphate salt (CC6628 from Sigma) was added to a final concentration of 0.8 mM. In the control condition insect cell media without chloroquine was added to the cells. Cells were incubated in a 27° C. incubator.
Fluorescence microscopy was performed 2 days after infection (FIG. 2A).
In the presence of chloroquine, the proportion of fluorescent cells is constant despite an increase of fluorescence intensity by cell (FIG. 2B), indicating accumulation of expressed YFP protein and virus without increasing the number of infected cells. […] In addition the virus produced high quality protein correctly folded within the individual cells.

The mark [1] stands for this setting: MOI approximately 0.02, chloroquine 0.8 mM, five days after infection (FIG. 2B).

As to `CCN(CC)CCCC(C)Nc1ccnc2cc(Cl)ccc12` (stereo not drawn) [chloroquine, Chloroquine], the “proportion of fluorescent cells” value (MOI approximately 0.02, chloroquine 0.8 mM added four hours after infection, 2 days after infection (FIG. 2A)) was “around 1%”. Moreover, under setting [1], the “fluorescence intensity by cell (accumulation of expressed YFP protein)” value is “increase” and the “proportion of fluorescent cells” value is on record as “constant”.
